{"source": "paper PMC9856044", "about": "(Biomolecules, 2023)", "key": {"[1]": {"target": "Tel22 (5′-AGGG(TTAGGG)3–3′) G-quadruplex", "experiment": "Fluorimetric titration with Tel22 in sodium cacodylate buffer (Na+ solution)", "assay_type": "binding, human", "method": "Materials. Polynucleotides were purchased as noted: poly A–poly U, calf thymus ctDNA, poly(dAdT)2 and poly(dGdC)2 (Sigma-Aldrich, St. Louis, MI, USA). Polynucleotides were dissolved in Na-cacodylate buffer, I = 0.05 mol dm^−3, pH = 7.0. The calf thymus ctDNA was additionally sonicated and filtered through a […]. Polynucleotide concentration was determined spectroscopically as the concentration of phosphates. Spectrophotometric titrations were performed at pH = 7.0 (I = 0.05 mol dm^−3, sodium cacodylate buffer) by adding aliquots of polynucleotide solution into the solution of the studied compound for fluorimetric experiments and CD experiments were done by adding aliquots of the compound stock solution into the solution of a polynucleotide. In fluorimetric experiments, an excitation wavelength of λexc = 425, 431, 423, 427, 406 and 407 nm, respectively, was used to avoid the inner filter effect caused due to increasing absorbance of the polynucleotide. Emission was collected in the range λem = 400–700 nm. Values for Ka obtained by processing titration data using the Scatchard equation [27], all have satisfactory correlation coefficients (≥0.98).\n(§1) Thermal melting curves for DNA, RNA and their complexes with studied compounds were determined as previously described by following the absorption change at 260 nm as a function of temperature. The absorbance of the ligands was subtracted from every curve and the absorbance scale was normalized. Tm values are the midpoints of the transition curves determined from the maximum of the first derivative and checked graphically by the tangent method. The ∆Tm values were calculated by subtracting Tm of the free nucleic acid from Tm of the complex. Every ∆Tm value here reported was the average of two measurements. The error in ∆Tm is ±0.5 °C. 5′-AGGG(TTAGGG)3–3′(Tel22) was obtained from IDT (Integrated DNA Technologies, Coralville, IA, USA). Tel22 was dissolved in 0.1 M either in sodium cacodylate or potassium phosphate buffer. The starting Tel22 oligonucleotide solution was first heated up to 95 °C for 10 min, then slowly cooled to 10 °C at the cooling rate of 1 °C/min to allow DNA oligonucleotide to adopt a G-quadruplex structure. The G-quadruplex structure was confirmed by thermal melting and CD spectra. The concentration of G quadruplex was expressed in terms of oligonucleotide structure. In fluorimetric titrations, aliquots of Tel 22 solution were added to the solution of ligands (c ~ 2 × 10^−7 M, in SI).\nBinding constants (log Ka) and stoichiometry of complexes were calculated from the fluorimetric data using non-linear least-square program SPECFIT [46], in the concentration range that corresponded to 20–80% complex formed."}, "Tel22 G-quadruplex": {"test_system": "Tel22 G-quadruplex", "experiment": "Thermal melting of Tel22 in sodium cacodylate buffer", "assay_type": "binding, human", "details": "Tel22, r = 1.0, sodium cacodylate buffer, pH = 7.0, I = 0.1 mol dm^−3; error ± 0.5 °C", "method": "as §1"}, "MDA-MB-435S cells": {"test_system": "MDA-MB-435S cells", "experiment": "MTT cytotoxicity assay, MDA-MB-435S", "assay_type": "cell-based", "details": "Homo sapiens, 72 h incubation, ± SD", "method": "(§2) Human cervical carcinoma HeLa (GIBCO BRL, Invitrogen, Waltham, MA, USA), human melanoma MDA-MB-435S and human ovarian adenocarcinoma SK-OV-3 (ATCC-LGC Standards GmbH, Wesel, Germany) cell lines were purchased from indicated cell culture banks. Normal human skin fibroblasts were isolated from the upper arm of a donor at the Neurochemical Laboratory, Department of Chemistry and Biochemistry, School of Medicine, University of Zagreb. HeLa, MDA-MB-435S and fibroblasts were grown in Dulbecco’s Modified Eagle’s Medium (DMEM; Sigma-Aldrich, St. Louis, MI, USA) while the SK-OV-3 cell line was grown in McCoy’s 5A medium (Capricorn Scientific, Ebsdorfergrund, Germany). All media were supplemented with 10% fetal bovine serum (FBS; Sigma-Aldrich) and 50 I.U./mL penicillin and 50 μg/mL streptomycin. Cells were cultured in a humidified atmosphere of 5% CO2 at 37 °C and were sub-cultured every 3–4 days. HeLa, MDA-MB-435S, SK-OV-3 cells and fibroblasts were seeded in 96 well plates. Twenty-four hours later the cells were treated, in quadruplicate, with different concentrations of compounds (dissolved in DMSO, kept at 4 °C and protected from light). Following 72 h of incubation at 37 °C, the medium was aspired and modified 3-(4,5-dimethylthiazol-2-yl)-2,5-diphenyltetrazolium bromide (MTT) assay was used to determine the cytotoxic effect of the tested compounds. Three hours later, formazan crystals were dissolved in DMSO (0.17 mL/well), the plates were mechanically agitated for 20 min and the optical density at 600 nm was determined on a microtiter plate reader (Awareness Technology Inc., Palm City, FL, USA). The experiments were repeated three times."}, "SK-OV-3 cells": {"test_system": "SK-OV-3 cells", "experiment": "MTT cytotoxicity assay, SK-OV-3", "assay_type": "cell-based", "details": "Homo sapiens, SK-OV-3, 72 h incubation, ± SD", "method": "as §2"}, "Fibroblasts": {"test_system": "Fibroblasts", "experiment": "MTT cytotoxicity assay, normal human skin fibroblasts", "assay_type": "cell-based", "details": "Fibroblast, 72 h incubation, ± SD", "method": "as §2"}, "HeLa cells": {"test_system": "HeLa cells", "experiment": "MTT cytotoxicity assay, HeLa", "assay_type": "cell-based", "details": "Homo sapiens, 72 h incubation, ± SD", "method": "as §2"}, "poly(dAdT)2 (AT-DNA)": {"test_system": "poly(dAdT)2 (AT-DNA)", "experiment": "Thermal melting of AT-DNA", "assay_type": "binding", "details": "r [compound]/[nucleotide phosphate] = 0.1", "method": "as §1\nBinding abilities of 1–6 compounds were further explored by thermal melting experiments. […]"}, "[2]": {"details": "Tel22, sodium cacodylate buffer, pH = 7.0, I = 0.1 mol dm^−3, SPECFIT fit of fluorescence titration"}}}
{"compound": "CN1/C(=C/c2[se]c3ccccc3[n+]2C)Sc2ccccc21", "note": "[Compound 3, 3-methyl-2-((3-methylbenzo[d]thiazol-2(3H)-ylidene)methyl)benzo[d][1,3]selenazol-3-ium methosulphate]", "values": [{"measurement": "logKa1 (L + G ⇆ LG)", "setting": "[1]; [2]", "value": "7.26 ± 0.41"}, {"measurement": "logKa2 (LG + G ⇆ LG2)", "setting": "[1]; [2]", "value": "5.93 ± 0.47"}, {"measurement": "Selectivity for G-quadruplex over duplex DNA", "setting": "[1]; binding affinities Tel22 vs duplex DNA, in both the Na+ and K+ solutions", "value": 100, "unit": "fold"}, {"measurement": "∆Tm", "setting": "Tel22 G-quadruplex", "value": 0.5, "unit": "°C"}, {"measurement": "IC50", "setting": "MDA-MB-435S cells", "value": "987 ± 177", "unit": "nM"}, {"measurement": "IC50", "setting": "SK-OV-3 cells", "value": "548 ± 102", "unit": "nM"}, {"measurement": "IC50", "setting": "Fibroblasts", "value": "2380 ± 161", "unit": "nM"}, {"measurement": "IC50", "setting": "HeLa cells", "value": "1020 ± 672", "unit": "nM"}]}
{"compound": "C[n+]1c(/C=C2\\Sc3ccccc3N2CCCS)[se]c2ccccc21", "note": "[Compound 5, 2-((3-(3-mercaptopropyl)benzo[d]thiazol-2(3H)-ylidene)methyl)-3-methylbenzo[d][1,3]selenazol-3-ium methosulphate]", "values": [{"measurement": "∆Tm", "setting": "Tel22 G-quadruplex", "value": 2.1, "unit": "°C"}, {"measurement": "∆Tm value", "setting": "poly(dAdT)2 (AT-DNA)", "value": 4, "unit": "°C"}, {"measurement": "IC50", "setting": "MDA-MB-435S cells", "value": "37100 ± 3020", "unit": "nM"}, {"measurement": "IC50", "setting": "SK-OV-3 cells", "value": "29600 ± 5720", "unit": "nM"}, {"measurement": "IC50", "setting": "Fibroblasts", "value": "> 40000", "unit": "nM"}, {"measurement": "IC50", "setting": "HeLa cells", "value": "27900 ± 4140", "unit": "nM"}]}
